Drawing on patent publication US9499493B2, “2,4-pyrimidinediamine compounds and their uses” (Rigel Pharmaceuticals, Inc., priority 2002, dated 2016), this text covers IC50 for 31 molecules.

Assay [1] has as its system cultured human mast cells (CHMC). Briefly: CHMC low cell density IgE activation: tryptase assay. The note with it: anti-IgE. The class given is cell-based. The method in brief:
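Low-density CHMC assay: donor-adjusted 1000-1500 cells/well, MT buffer, 1 hr 37° C preincubation; anti-IgE stimulus 30 min 37° C versus MT-only controls; supernatant tryptase by substrate, 30 min RT.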

Assay [2] has the same test system. Put plainly: CHMC low cell density ionomycin activation: tryptase assay. It is filed as cell-based.

Bounds are passed on as bounds.

As to `CNC(=O)Cn1ncc2ccc(Nc3ncc(F)c(Nc4ccc5cnn(CC(=O)NC)c5c4)n3)cc21` [R935206, N2,N4-Bis[1-(N-methylaminocarbonyl)methyl-indazoline-6-yl]-5-fluoro-2,4-pyrimidinediamine], the figures for the IC50 in assay [1] and in assay [2] were 4710 nM and greater than 10000 nM, respectively.

Take `COC(=O)c1cc(COc2cccc(Nc3ncc(F)c(Nc4ccc5c(c4)OCCO5)n3)c2)co1` [R935207, N4-(3,4-ethylenedioxyphenyl)-5-fluoro-N2-[3-(2-methoxycarbonyl-fur-4-yl)methyleneoxyphenyl]-2,4-pyrimidinediamine]: the IC50 in assay [1] and in assay [2] was greater than 10000 nM in each case.

With `COC(=O)Cn1ncc2ccc(Nc3ncc(F)c(Nc4ccc5c(c4)OCCO5)n3)cc21` [R935208, N4-(3,4-ethylenedioxyphenyl)-5-fluoro-N2-[1-(methoxycarbonyl)methyl-indazoline-6-yl]-2,4-pyrimidinediamine], the IC50 in assay [1] was 1270 nM; in assay [2], greater than 10000 nM.

On to `COC(=O)COc1ccc(Nc2ncc(F)c(Nc3ccc4c(cnn4C)c3)n2)cc1` [R935209, 5-Fluoro-N2-[4-(methoxycarbonylmethyleneoxy)phenyl]-N4-(1-methyl-indazoline-5-yl)-2,4-pyrimidinediamine], for which the IC50 in assay [1] came out at 526 nM; in assay [2], 1040 nM.

For `COC(=O)Cn1ncc2cc(Nc3ncc(F)c(Nc4ccc5c(cnn5CC(=O)OC)c4)n3)ccc21` [R935211, N2,N4-Bis[1-(methoxycarbonyl)methyl-indazoline-5-yl]-5-fluoro-2,4-pyrimidinediamine], the figures for the concentration for half-maximal inhibition (IC50) in assay [1] and in assay [2] were 1240 nM and greater than 10000 nM, respectively.

Consider `CNC(=O)Cn1ncc2ccc(Nc3ncc(F)c(Nc4ccc5c(c4)OCCO5)n3)cc21` [R935212, N4-(3,4-ethylenedioxyphenyl)-5-fluoro-N2-[1-(N-methylaminocarbonyl)methyl-indazoline-6-yl]-2,4-pyrimidinediamine], for which the values for the IC50 in assay [1] and in assay [2] were 1430 nM and greater than 10000 nM, respectively.

For the molecule `CNC(=O)c1cc(COc2cccc(Nc3ncc(F)c(Nc4ccc5c(c4)OCCO5)n3)c2)co1` [R935213, N4-(3,4-ethylenedioxyphenyl)-5-fluoro-N2-[3-(2-(N-methylamino)carbonyl-fur-4-yl)methyleneoxyphenyl]-2,4-pyrimidinediamine], the 50% inhibitory concentration (IC50) in assay [1] amounted to 619 nM; in assay [2], 10000 nM.

Consider `COc1cc(Nc2ncc(F)c(Nc3ccc4c(cnn4C)c3)n2)cc(OC)c1` [R935214, 5-Fluoro-N2-(3,5-dimethoxyphenyl)-N4-(1-methyl-indazoline-5-yl)-2,4-pyrimidinediamine], for which the IC50 in assay [1] is 453 nM; in assay [2] it was 5500 nM.

As for `COC(=O)Cn1ncc2ccc(Nc3nc(Nc4ccc(OC(C)C)cc4)ncc3F)cc21` [R935218, 5-Fluoro-N2-(4-isopropoxyphenyl)-N4-[1-(methoxycarbonyl)methyl-indazoline-6-yl]-2,4-pyrimidinediamine], the IC50 was 4710 nM in assay [1] and greater than 10000 nM in assay [2].

In the case of `COC(=O)Cn1ncc2ccc(Nc3nc(Nc4ccc5c(c4)OCCO5)ncc3F)cc21` [R935219, N2-(3,4-Ethylenedioxyphenyl)-5-fluoro-N4-[1-(methoxycarbonyl)methyl-indazoline-6-yl]-2,4-pyrimidinediamine], the IC50 in assay [1] was 5410 nM; in assay [2], greater than 10000 nM.

As to `COC(=O)Cn1ncc2ccc(Nc3nc(Nc4cccc(O)c4)ncc3F)cc21` [R935220, 5-Fluoro-N2-(3-hydroxyphenyl)-N4-[1-(methoxycarbonyl)methyl-indazoline-6-yl]-2,4-pyrimidinediamine], the IC50 in assay [1] is 3790 nM; in assay [2] it was greater than 10000 nM.

For the molecule `CNC(=O)Cn1ncc2cc(Nc3ncc(F)c(Nc4ccc5c(c4)OCCO5)n3)ccc21` [R935240, N4-(3,4-Ethylenedioxyphenyl)-5-fluoro-N2-[1-(N-methylaminocarbonyl)methyl-indazoline-5-yl]-2,4-pyrimidinediamine], the values for the IC50 in assay [1] and in assay [2] were 606 nM and greater than 10000 nM, respectively.

As for `COC(=O)Cn1ncc2cc(Nc3nc(Nc4ccc(OC(C)C)cc4)ncc3F)ccc21` [R935242, 5-Fluoro-N2-(4-isopropoxyphenyl)-N4-[1-(methoxycarbonyl)methyl-indazoline-5-yl]-2,4-pyrimidinediamine], the IC50 in assay [1] was 2860 nM; in assay [2] it was greater than 10000 nM.

On to `OCCn1ncc2ccc(Nc3ncc(F)c(Nc4ccc5c(c4)OCCO5)n3)cc21` [R935248, N4-(3,4-Ethylenedioxyphenyl)-5-fluoro-N2-[1-(2-hydroxyethyl)indazoline-6-yl]-2,4-pyrimidinediamine], for which the IC50 in assay [1] was 1100 nM; in assay [2] it was greater than 10000 nM.

Regarding `COC(=O)Cn1ncc2cc(Nc3nc(Nc4ccc5c(c4)OCCO5)ncc3F)ccc21` [R935249, N2-(3,4-Ethylenedioxyphenyl)-5-fluoro-N4-[1-(methoxycarbonyl)methyl-indazoline-5-yl]-2,4-pyrimidinediamine], the IC50 in assay [1] was 1100 nM; in assay [2] it was greater than 10000 nM.

In the case of `COC(=O)Cn1ncc2cc(Nc3nc(Nc4cccc(O)c4)ncc3F)ccc21` [R935250, 5-Fluoro-N2-(3-hydroxyphenyl)-N4-[1-(methoxycarbonyl)methyl-indazoline-5-yl]-2,4-pyrimidinediamine], the IC50 in assay [1] was 1100 nM; in assay [2] it was greater than 10000 nM.

As to `CC(C)Oc1ccc(Nc2nc(Nc3ccc4c(cnn4CCO)c3)ncc2F)cc1` [R935255, 5-Fluoro-N2-[1-(2-hydroxyethyl)indazoline-5-yl]-N4-(4-isopropoxyphenyl)-2,4-pyrimidinediamine], the IC50 is 374 nM in assay [1] and greater than 10000 nM in assay [2].

Regarding `OCCn1ncc2cc(Nc3ncc(F)c(Nc4cccc(O)c4)n3)ccc21` [R935256, 5-Fluoro-N2-[1-(2-hydroxyethyl)indazoline-5-yl]-N4-(3-hydroxyphenyl)-2,4-pyrimidinediamine], the IC50 in assay [1] was 324 nM; in assay [2], greater than 10000 nM.

In the case of `OCCn1ncc2cc(Nc3nc(Nc4ccc5c(c4)OCCO5)ncc3F)ccc21` [R935258, N2-(3,4-Ethylenedioxyphenyl)-5-fluoro-N4-[1-(2-hydroxyethyl)indazoline-5-yl]-2,4-pyrimidinediamine], the IC50 in assay [1] is 1190 nM; in assay [2], greater than 10000 nM.

With `OCCn1ncc2cc(Nc3nc(Nc4cccc(O)c4)ncc3F)ccc21` [R935259, 5-Fluoro-N4-[1-(2-hydroxyethyl)indazoline-5-yl]-N2-(3-hydroxyphenyl)-2,4-pyrimidinediamine], the IC50 was 1780 nM in assay [1] and greater than 10000 nM in assay [2].

With `Fc1cnc(Nc2ccc3c(c2)OCCO3)nc1Nc1ccc2cn[nH]c2c1` [R935261, N2-(3,4-Ethylenedioxyphenyl)-5-fluoro-N4-(indazoline-6-yl)-2,4-pyrimidinediamine], the IC50 was 391 nM in assay [1] and greater than 10000 nM in assay [2].

`Oc1cccc(Nc2ncc(F)c(Nc3ccc4cn[nH]c4c3)n2)c1` [R935262, 5-Fluoro-N2-(3-hydroxyphenyl)-N4-(indazoline-6-yl)-2,4-pyrimidinediamine]: the IC50 is 516 nM in assay [1] and greater than 10000 nM in assay [2].

Turning to `Cc1cc(Nc2ncc(F)c(Nc3ccc4cn[nH]c4c3)n2)cc(Cl)c1O` [R935264, N2-(3-Chloro-4-hydroxy-3-methylphenyl)-5-fluoro-N4-(indazoline-6-yl)-2,4-pyrimidinediamine], the values for the half-maximal inhibitory concentration (IC50) in assay [1] and in assay [2] were 135 nM and greater than 10000 nM, respectively.

In the case of `CNC(=O)COc1cccc(Nc2ncc(F)c(Nc3ccc4[nH]ncc4c3)n2)c1` [R935279, 5-Fluoro-N4-(indazoline-5-yl)-N2-[3-(N-methylaminocarbonylmethyleneoxy)phenyl]-2,4-pyrimidinediamine], the IC50 in assay [1] is 889 nM; in assay [2], greater than 10000 nM.

With `CNC(=O)COc1cccc(Nc2ncc(F)c(Nn3cccc3)n2)c1` [R935281, 5-Fluoro-N2-[3-(N-methylaminocarbonylmethyleneoxy)phenyl]-N4-(1H-pyrrol-1-yl)-2,4-pyrimidinediamine], the IC50 in assay [1] was 1400 nM; in assay [2], greater than 10000 nM.

Turning to `CCOC(=O)CCn1ncc2ccc(Nc3ncc(F)c(Nc4ccc5c(c4)OCCO5)n3)cc21` [R935286, N2-[1-(2-ethoxycarbonylethyl)indazoline-6-yl]-N4-(3,4-ethylenedioxyphenyl)-5-fluoro-2,4-pyrimidinediamine], the IC50 in assay [1] was 1160 nM; in assay [2], greater than 10000 nM.

In the case of `OCCCn1ncc2ccc(Nc3ncc(F)c(Nc4ccc5c(c4)OCCO5)n3)cc21` [R935287, N4-(3,4-Ethylenedioxyphenyl)-5-fluoro-N2-[1-(3-hydroxypropyl)indazoline-6-yl]-2,4-pyrimidinediamine], the IC50 is 403 nM in assay [1] and greater than 10000 nM in assay [2].

Turning to `CNC(=O)CCn1ncc2ccc(Nc3nc(Nc4ccc5c(c4)OCCO5)ncc3F)cc21` [R935288, N2-(3,4-Ethylenedioxyphenyl)-5-fluoro-N4-[1-[2(N-methylaminocarbonyl)ethyl]-indazoline-6-yl]-2,4-pyrimidinediamine], the IC50 in assay [1] was 1580 nM; in assay [2], greater than 10000 nM.

Regarding `CCOC(=O)CCn1ncc2ccc(Nc3nc(Nc4cccc(OC(C)C)c4)ncc3F)cc21` [R935289, N4-[1-(2-Ethoxycarbonylethyl)indazoline-6-yl]-5-fluoro-N2-(isopropoxyphenyl)-2,4-pyrimidinediamine], the figures for the IC50 in assay [1] and in assay [2] were 1690 nM and greater than 10000 nM, respectively.

Consider `CC(C)Oc1ccc(Nc2nc(Nc3ccc4cnn(CCCO)c4c3)ncc2F)cc1` [R935290, 5-Fluoro-N2-[1-(3-hydroxypropyl)indazoline-6-yl]-N4-(4-isopropoxyphenyl)-2,4-pyrimidinediamine], for which the values for the IC50 in assay [1] and in assay [2] were 340 nM and greater than 10000 nM, respectively.

For `CNC(=O)CCn1ncc2ccc(Nc3ncc(F)c(Nc4ccc(OC(C)C)cc4)n3)cc21` [R935291, 5-Fluoro-N4-(4-isopropoxyphenyl)-N2-[1-[2(N-methylamino)carbonyl]ethyl-indazoline-6-yl]-2,4-pyrimidinediamine], the IC50 in assay [1] is 1360 nM; in assay [2], greater than 10000 nM.

One may read the IC50 as the point on the concentration scale where inhibition reaches its midpoint. Lower therefore signals higher potency.
